Assay results published in patent US20230085307A1, “PYRIDAZINONE COMPOUND AND HERBICIDE” (NISSAN CHEMICAL CORPORATION, priority 2019, published 2023).

Tests used:
[1] = tested on: wild oat; experiment: Test Example 5: herbicidal effect by foliage application, plastic box (Table 20, symbol I); format: in vivo, wild oat (Avena fatua); settings: foliage application, 320 g/ha, evaluated three weeks after application
Summary of the method: (§1)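 Foliar spray test: emulsion formulation diluted in water to a set application rate, sprayed onto 14-day-old plants raised in diluvial soil at 25° C to 30° C under glass. Both herbicidal effect and crop effect rated visually three weeks later.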

[2] = tested on: blackgrass; experiment: Test Example 5: herbicidal effect by foliage application, plastic box (Table 20, symbol J); format: in vivo, blackgrass (Alopecurus myosuroides); settings: foliage application, 320 g/ha, evaluated three weeks after application
Summary of the method: as §1

[3] = tested on: late watergrass; experiment: Test Example 2: herbicidal activity, application during weed generation under submerged conditions (Table 17, symbol A); format: in vivo, late watergrass (Echinochloa oryzicola); settings: AAH 320 g/ha; application during weed generation, submerged conditions
Summary of the method: (§2)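 Steps: fill Wagner pots with alluvial soil; add water to give 4 cm depth; sow the species mixed; grow under glass at 25–30° C.; at 1–2 leaves apply water-diluted emulsion formulation to the water surface at a fixed herbicide amount; score after 3 weeks.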

[4] = tested on: southern crabgrass; experiment: Test Example 5: herbicidal effect by foliage application, plastic box (Table 20, symbol F); format: in vivo, southern crabgrass (Digitaria ciliaris); settings: foliage application, 320 g/ha, evaluated three weeks after application
Summary of the method: as §1

[5] = tested on: velvetleaf; experiment: Test Example 4: herbicidal effect by soil treatment (Table 19, symbol M); format: in vivo, velvetleaf (Abutilon theophrasti); settings: 320 g/ha
Summary of the method: (§3)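 Herbicidal effect was rated 3 weeks after treatment, using the scoring criteria of an earlier test. The compound, formulated as an emulsion and diluted in water to a set herbicide amount, had been sprayed uniformly on soil over freshly sown seeds. Growth took place in a greenhouse at 25° C. to 30° C.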

[6] = tested on: windgrass; experiment: Test Example 5: herbicidal effect by foliage application, plastic box (Table 20, symbol L); format: in vivo, windgrass (Apera spica-venti); settings: foliage application, 320 g/ha, evaluated three weeks after application
Summary of the method: as §1

[7] = tested on: chickweed; experiment: Test Example 5: herbicidal effect by foliage application, plastic box (Table 20, symbol P); format: in vivo, common chickweed (Stellaria media); settings: foliage application, 320 g/ha, evaluated three weeks after application
Summary of the method: as §1

[8] = tested on: lambsquarters; experiment: Test Example 4: herbicidal effect by soil treatment (Table 19, symbol O); format: in vivo, lambsquarters (Chenopodium album); settings: 320 g/ha
Summary of the method: as §3

[9] = tested on: Italian ryegrass; experiment: Test Example 4: herbicidal effect by soil treatment (Table 19, symbol K); format: in vivo, Italian ryegrass (Lolium multiflorum); settings: 320 g/ha
Summary of the method: as §3

[10] = tested on: wild oat; experiment: Test Example 4: herbicidal effect by soil treatment (Table 19, symbol I); format: in vivo, wild oat (Avena fatua); settings: 320 g/ha
Summary of the method: as §3

[11] = tested on: southern crabgrass; experiment: Test Example 4: herbicidal effect by soil treatment (Table 19, symbol F); format: in vivo, southern crabgrass (Digitaria ciliaris); settings: 320 g/ha
Summary of the method: as §3

[12] = tested on: barnyard grass; experiment: Test Example 4: herbicidal effect by soil treatment (Table 19, symbol H); format: in vivo, barnyard grass (Echinochloa crus-galli); settings: 320 g/ha
Summary of the method: as §3

[13] = tested on: redroot pigweed; experiment: Test Example 4: herbicidal effect by soil treatment (Table 19, symbol N); format: in vivo, redroot pigweed (Amaranthus retroflexus); settings: 320 g/ha
Summary of the method: as §3

[14] = tested on: green foxtail; experiment: Test Example 5: herbicidal effect by foliage application, plastic box (Table 20, symbol G); format: in vivo, green foxtail (Setaria viridis); settings: foliage application, 320 g/ha, evaluated three weeks after application
Summary of the method: as §1

[15] = tested on: barnyard grass; experiment: Test Example 3: herbicidal effect by foliage application, Wagner pot (Table 18, symbol H); format: in vivo, barnyard grass (Echinochloa crus-galli); settings: 320 g/ha
Summary of the method: (§4)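 Plants were sown in alluvial soil held under 0.1–0.5 cm standing water and grown 14 days in a greenhouse at 25–30 °C. An emulsifiable formulation, water-diluted to the set dose, was then sprayed onto the foliage, and effects were scored three weeks later using previously defined criteria.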

[16] = tested on: oval-leafed pondweed; experiment: Test Example 2: herbicidal activity, application during weed generation under submerged conditions (Table 17, symbol C); format: in vivo, oval-leafed pondweed (Monochoria vaginalis); settings: AAH 320 g/ha; application during weed generation, submerged conditions
Summary of the method: as §2

[17] = tested on: blackgrass; experiment: Test Example 4: herbicidal effect by soil treatment (Table 19, symbol J); format: in vivo, blackgrass (Alopecurus myosuroides); settings: 320 g/ha
Summary of the method: as §3

[18] = tested on: velvetleaf; experiment: Test Example 5: herbicidal effect by foliage application, plastic box (Table 20, symbol M); format: in vivo, velvetleaf (Abutilon theophrasti); settings: foliage application, 320 g/ha, evaluated three weeks after application
Summary of the method: as §1

[19] = tested on: chickweed; experiment: Test Example 4: herbicidal effect by soil treatment (Table 19, symbol P); format: in vivo, common chickweed (Stellaria media); settings: 320 g/ha
Summary of the method: as §3

[20] = tested on: windgrass; experiment: Test Example 4: herbicidal effect by soil treatment (Table 19, symbol L); format: in vivo, windgrass (Apera spica-venti); settings: 320 g/ha
Summary of the method: as §3

[21] = tested on: green foxtail; experiment: Test Example 4: herbicidal effect by soil treatment (Table 19, symbol G); format: in vivo, green foxtail (Setaria viridis); settings: 320 g/ha
Summary of the method: as §3

[22] = tested on: Italian ryegrass; experiment: Test Example 5: herbicidal effect by foliage application, plastic box (Table 20, symbol K); format: in vivo, Italian ryegrass (Lolium multiflorum); settings: foliage application, 320 g/ha, evaluated three weeks after application
Summary of the method: as §1

[23] = tested on: persian speedwell; experiment: Test Example 5: herbicidal effect by foliage application, plastic box (Table 20, symbol R); format: in vivo, Persian speedwell (Veronica persica); settings: foliage application, 320 g/ha, evaluated three weeks after application
Summary of the method: as §1

[24] = tested on: persian speedwell; experiment: Test Example 4: herbicidal effect by soil treatment (Table 19, symbol R); format: in vivo, Persian speedwell (Veronica persica); settings: 320 g/ha
Summary of the method: as §3

[25] = tested on: Japanese bulrush; experiment: Test Example 2: herbicidal activity, application during weed generation under submerged conditions (Table 17, symbol B); format: in vivo, Japanese bulrush (Schoenoplectus juncoides); settings: AAH 320 g/ha; application during weed generation, submerged conditions
Summary of the method: as §2

[26] = tested on: lambsquarters; experiment: Test Example 5: herbicidal effect by foliage application, plastic box (Table 20, symbol O); format: in vivo, lambsquarters (Chenopodium album); settings: foliage application, 320 g/ha, evaluated three weeks after application
Summary of the method: as §1

[27] = tested on: redroot pigweed; experiment: Test Example 5: herbicidal effect by foliage application, plastic box (Table 20, symbol N); format: in vivo, redroot pigweed (Amaranthus retroflexus); settings: foliage application, 320 g/ha, evaluated three weeks after application
Summary of the method: as §1

[28] = tested on: Chinese sprangletop; experiment: Test Example 3: herbicidal effect by foliage application, Wagner pot (Table 18, symbol D); format: in vivo, chinese sprangletop (Leptochloa chinensis); settings: 320 g/ha
Summary of the method: as §4

[29] = tested on: barnyard grass; experiment: Test Example 5: herbicidal effect by foliage application, plastic box (Table 20, symbol H); format: in vivo, barnyard grass (Echinochloa crus-galli); settings: foliage application, 320 g/ha, evaluated three weeks after application
Summary of the method: as §1

[30] = tested on: rice flat sedge; experiment: Test Example 3: herbicidal effect by foliage application, Wagner pot (Table 18, symbol E); format: in vivo, rice flat sedge (Cyperus iria); settings: 320 g/ha
Summary of the method: as §4

## Cc1nn(C)c(=O)c(-c2c(-c3ccc(OC4CCOC4)cc3)sc3ccc(F)cc23)c1O (stereo not drawn) [2-074]
[1]
  herbicidal effect on I: wild oat: 4 (Herbicidal rate of 70% or more and less than 90%)
[2]
  herbicidal effect on J: blackgrass: 5 (Herbicidal rate of 90% or more (almost completely withered))
[3]
  herbicidal effect rating, A: late watergrass: 0 (Herbicidal rate of 5% or less (almost no effect))
[4]
  herbicidal effect on F: southern crabgrass: 5 (Herbicidal rate of 90% or more (almost completely withered))
[5]
  herbicidal effect rating, M: velvetleaf: 3 (Herbicidal rate of 40% or more and less than 70%)
[6]
  herbicidal effect on L: windgrass: 5 (Herbicidal rate of 90% or more (almost completely withered))
[7]
  herbicidal effect on P: chickweed: 5 (Herbicidal rate of 90% or more (almost completely withered))
[8]
  herbicidal effect rating, O: lambsquarters: 5 (Herbicidal rate of 90% or more (almost completely withered))
[9]
  herbicidal effect rating, K: Italian ryegrass: 3 (Herbicidal rate of 40% or more and less than 70%)
[10]
  herbicidal effect rating, I: wild oat: 0 (Herbicidal rate of 5% or less (almost no effect))
[11]
  herbicidal effect rating, F: southern crabgrass: 5 (Herbicidal rate of 90% or more (almost completely withered))
[12]
  herbicidal effect rating, H: barnyard grass: 5 (Herbicidal rate of 90% or more (almost completely withered))
[13]
  herbicidal effect rating, N: redroot pigweed: 5 (Herbicidal rate of 90% or more (almost completely withered))
[14]
  herbicidal effect on G: green foxtail: 5 (Herbicidal rate of 90% or more (almost completely withered))
[15]
  herbicidal effect on H (barnyard grass), rating 0-5: 5 (Herbicidal rate of 90% or more (almost completely withered))
[16]
  herbicidal effect rating, C: oval-leafed pondweed: 0 (Herbicidal rate of 5% or less (almost no effect))
[17]
  herbicidal effect rating, J: blackgrass: 1 (Herbicidal rate of 5% or more and less than 20%)
[18]
  herbicidal effect on M: velvetleaf: 5 (Herbicidal rate of 90% or more (almost completely withered))
[19]
  herbicidal effect rating, P: chickweed: 3 (Herbicidal rate of 40% or more and less than 70%)
[20]
  herbicidal effect rating, L: windgrass: 3 (Herbicidal rate of 40% or more and less than 70%)
[21]
  herbicidal effect rating, G: green foxtail: 5 (Herbicidal rate of 90% or more (almost completely withered))
[22]
  herbicidal effect on K: Italian ryegrass: 4 (Herbicidal rate of 70% or more and less than 90%)
[23]
  herbicidal effect on R: persian speedwell: 5 (Herbicidal rate of 90% or more (almost completely withered))
[24]
  herbicidal effect rating, R: persian speedwell: 5 (Herbicidal rate of 90% or more (almost completely withered))
[25]
  herbicidal effect rating, B: Japanese bulrush: 3 (Herbicidal rate of 40% or more and less than 70%)
[26]
  herbicidal effect on O: lambsquarters: 5 (Herbicidal rate of 90% or more (almost completely withered))
[27]
  herbicidal effect on N: redroot pigweed: 5 (Herbicidal rate of 90% or more (almost completely withered))
[28]
  herbicidal effect on D (Chinese sprangletop), rating 0-5: 5 (Herbicidal rate of 90% or more (almost completely withered))
[29]
  herbicidal effect on H: barnyard grass: 5 (Herbicidal rate of 90% or more (almost completely withered))
[30]
  herbicidal effect on E (rice flat sedge), rating 0-5: 5 (Herbicidal rate of 90% or more (almost completely withered))
